Laboratory results: US4211772A, “Benzopyran glycoside acetals and ketals” (Laboratoires Sarget, priority 1977, dated 1980)
≈ marks a conversion by molar mass, not a printed value. Where two headings read alike, the source gives them in different places. Each block holds one compound with its values, some of them ahead of it.

Columns and labels:
Aldose Reductase = target: T1, Aldose Reductase (Bos taurus, UniProt P16116); assay: Inhibition of aldose reductase in vitro (enzyme from beef eye lenses, glyceraldehyde substrate); format: biochemical; details: in DMF solution, read-out: percentages of inhibition (aldose reductase); for inhibition at 100 µM: 10^-4 mole/l; for inhibition at 10 µM: 10^-5 mole/l; for inhibition at 1 µM: 10^-6 mole/l
T1 construct: The enzyme is extracted from beef eye lenses; from tissue; host or cells: beef eye lenses
Description: Inhibition of Aldose Reductase In Vitro
The reoxidation of NADPH coupled to the enzymatic reaction was followed spectrophotometrically at 340 nm.

Solubilities in water = format: physicochemical; details: for solubility: read-out: Solubilities in water
galactosemic cataract = assay: Galactosemic cataract in rats; format: in vivo, weaning male EOPS Wistar rats; details: 100 mg/kg/d i.p.
Protocol: GALACTOSEMIC CATARACT IN RATS
The study was conducted using weaning male EOPS Wistar rats having an initial weight of between 45 and 50 g. The animals were fed a high vitamin and high protein regimen containing 20% by weight of galactose. The first signs of cataracts, detected by the ophthalmoscope, appeared beginning with the third day. The animals received daily i.p. doses of the test compound, the treatment being started four days after the commencement of the galactosemic regimen. The evolution of the cataract was followed by the detection of maroon rings visible in the ophthalmoscope. These rings appeared on the external edge of the lens and progressed little by little to its center. Anatomopathological studies of the lenses confirmed that these brown rings correspond well to the characteristic histological lesions of galactosemic cataracts. Photographs taken with the aid of a retinograph facilitated the comparison of the evolution of the lesions.
Statistical calculations according to the .chi.^2 method permit an evaluation of the significance of the results obtained for each of the treatments compared to those for non-treated animals.

COMT = target: T2, COMT (Rattus norvegicus, UniProt P22734); assay: Inhibition of COMT in vitro (enzyme from rat liver, 4-nitrocatechol substrate); format: biochemical; details: in dimethylsulfoxide solution, read-out: percentages of inhibition (COMT); for inhibition at 1000 µM: 10^-3 mole/l; for inhibition at 100 µM: 10^-4 mole/l; for inhibition at 10 µM: 10^-5 mole/l
T2 construct: The enzyme is extracted from rat liver; from tissue; host or cells: rat liver
T2 sequence (P22734 1-221 isoform P22734-2): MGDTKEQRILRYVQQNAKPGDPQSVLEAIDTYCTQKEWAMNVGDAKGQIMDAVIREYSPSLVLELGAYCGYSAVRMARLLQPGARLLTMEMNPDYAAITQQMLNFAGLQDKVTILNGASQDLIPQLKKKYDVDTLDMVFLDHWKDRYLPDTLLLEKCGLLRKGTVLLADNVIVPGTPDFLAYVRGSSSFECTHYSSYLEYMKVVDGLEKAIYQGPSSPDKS
Protocol: Inhibition of COMT in vitro The enzyme is extracted from rat liver by the method described by Axelrod et al, J. Biol. Chem., 233, 702(1958); its activity is measured in the presence of S-adenosyl methionine and using as substrate 4-nitrocatechol by the method described by Lee et al, J. Pharm. Sci., 66(7), 986(1977). The quantity of 4-nitrocatechol consumed was determined spectrophotometrically at 520 nm in alkaline medium.

carragenin edema = assay: Anti-inflammatory activity: carragenin edema test; format: in vivo; details: Rattus norvegicus, ip, saturated bicarbonate solution, read-out: % inhibition of carragenin edema; for inhibition in vivo at 75 mg/kg: 75 mg/kg i.p.; for inhibition in vivo at 150 mg/kg: 150 mg/kg i.p.
Protocol: Anti-inflammatory activity
This was determined by the carragenin edema test using male Wistar EOPS rats. Inflammation was induced by the injection of 0.1 ml of a suspension of 5% carragenin in physiological serum into the muscular bundle of the metatarsal region of the posterior paw of the animal. The test substance was administered i.p. in neutralized solution at the same time as the carragenin.
Edema was measured by plethysmometry at different times after the administration of the carragenin.
Tables IV and V show the percentages of inhibition as a function of time and of dosage for certain compounds of the present invention.
The above results were obtained for solutions of substantially alkaline
The reference experiments were performed using physiological serum brough
to a pH approximately the same as the pH of the solutions to be tested.

capillary resistance = assay: Capillaroprotecting effects: capillary resistance; format: in vivo, male OFA EOPS rats
Protocol: (§1) Capillaroprotecting effects
The capillary resistance was determined by a variant of the method of Charlier et al, Arch. Inter. Physiol.

capillary permeability = assay: Capillaroprotecting effects: capillary permeability; format: in vivo, conventional male Wistar rats
Protocol: as §1
The capillary permeability was determined by the method of Charlier et al, Arch. Inter. Physiol.

- inhibition at 100 µM (Aldose Reductase): 42%
- inhibition at 10 µM (Aldose Reductase): 0%
- solubility (Solubilities in water; water): 600 µg/mL (≈ 943 µM)
SMILES: CC1(C)O[C@@H]2[C@@H](O)[C@H](OC[C@H]3O[C@@H](Oc4c(-c5ccc(O)c(O)c5)oc5cc(O)cc(O)c5c4=O)[C@H](O)[C@@H](O)[C@@H]3O)OC[C@@H]2O1 [No. 4, 3-O-(3,4-O,O-isopropylidene-6-α-L-arabinosyl-β-D-glucosyl)-quercetin]

- inhibition at 1000 µM (COMT): 91%
- inhibition at 10 µM (COMT): 15 to 22%
- inhibition at 100 µM (Aldose Reductase): 100%
- inhibition at 10 µM (Aldose Reductase): 69%
- inhibition at 1 µM (Aldose Reductase): 22%
SMILES: COc1ccc(C2(C)O[C@@H]3[C@@H](O)[C@H](C)O[C@@H](OC[C@H]4O[C@@H](Oc5c(-c6ccc(O)c(O)c6)oc6cc(O)cc(O)c6c5=O)[C@H](O)[C@@H](O)[C@@H]4O)[C@@H]3O2)cc1 (stereo partly drawn) [No. 36, 3-O-(2,3-O,O-(α-methyl-p-methoxybenzylidene)-6-α-L-rhamnosyl-β-D-glucosyl) quercetin]

- inhibition at 100 µM (Aldose Reductase): 83%
- inhibition at 10 µM (Aldose Reductase): 56%
- inhibition at 1 µM (Aldose Reductase): 0%
- solubility (Solubilities in water; water): < 100 µg/mL
SMILES: CC1(C)OC[C@H]2O[C@@H](Oc3c(-c4ccc(O)c(O)c4)oc4cc(O)cc(O)c4c3=O)[C@H](O)[C@@H](O)[C@@H]2O1 [No. 5, 3-O-(4,6-O,O-isopropylidene-β-D-glucosyl)-quercetin]
- % of animals for which the effect is ≥ 25 u cm Hg/h (capillary resistance; 50 mg/kg i.p.): 60%
- capillary resistance, effect observed (capillary resistance; 50 mg/kg i.p.): 28 ± 9.8 u cm Hg/h
- % of animals for which the effect is ≥ 25 u cm Hg/h (capillary resistance; 100 mg/kg i.p.): 80%
- capillary resistance, effect observed (capillary resistance; 100 mg/kg i.p.): 32.25 ± 11.4 u cm Hg/h
- % of animals for which the effect is ≥ 25 u cm Hg/h (capillary resistance; 200 mg/kg i.p.): 80%
- capillary resistance, effect observed (capillary resistance; 200 mg/kg i.p.): 37 ± 16.1 u cm Hg/h
- percentage reduction of capillary permeability (capillary permeability; 50 mg/kg i.p.): 11%
- percentage reduction of capillary permeability (capillary permeability; 100 mg/kg i.p.): 34%
- percentage reduction of capillary permeability (capillary permeability; 200 mg/kg i.p.): 28%

Further lines, the compound ahead of its results:

SMILES: O=c1ccc2cc(O[C@@H]3O[C@H](CO)[C@@H](O)[C@H](O)[C@H]3O)c(O)cc2o1 [Esculin, reference compound]
- inhibition at 100 µM (Aldose Reductase): 16%
- solubility (Solubilities in water; water): 1700 µg/mL (≈ 5000 µM)

SMILES: COc1ccc([C@@H]2CC(=O)c3c(O)cc(O[C@@H]4O[C@H](CO[C@@H]5O[C@@H](C)[C@H](O)[C@@H](O)[C@H]5O)[C@@H](O)[C@H](O)[C@H]4O)cc3O2)cc1O [Hesperidin, reference compound]
- solubility (Solubilities in water; water): 20 µg/mL (≈ 32.8 µM)

SMILES: C[C@@H]1O[C@@H](Oc2c(-c3ccc(O)c(O)c3)oc3cc(O)cc(O)c3c2=O)[C@H](O)[C@H](O)[C@H]1O [Quercitrin, reference compound]
- Solubilities in water (Solubilities in water; water): insoluble

SMILES: O=c1c(O[C@@H]2O[C@H](CO[C@@H]3OC[C@H](O)[C@H](O)[C@H]3O)[C@@H](O)[C@H](O)[C@H]2O)c(-c2ccc(O)c(O)c2)oc2cc(O)cc(O)c12 [3-Vicianosyl quercetin, reference compound]
- solubility (Solubilities in water; water): 330 µg/mL (≈ 553 µM)
- percentage of animals which have not yet shown the appearance of cataracts (galactosemic cataract; day 0): 100%
- percentage of animals which have not yet shown the appearance of cataracts (galactosemic cataract; day 1): 100%
- percentage of animals which have not yet shown the appearance of cataracts (galactosemic cataract; day 2): 97%
- percentage of animals which have not yet shown the appearance of cataracts (galactosemic cataract; day 3): 59%
- percentage of animals which have not yet shown the appearance of cataracts (galactosemic cataract; day 4): 40%
- significance compared to non-treated animals (chi^2) (galactosemic cataract; day 4): S
- percentage of animals which have not yet shown the appearance of cataracts (galactosemic cataract; day 5): 31%
- significance compared to non-treated animals (chi^2) (galactosemic cataract; day 5): S
- percentage of animals which have not yet shown the appearance of cataracts (galactosemic cataract; day 6): 12%
- significance compared to non-treated animals (chi^2) (galactosemic cataract; day 6): S
- percentage of animals which have not yet shown the appearance of cataracts (galactosemic cataract; day 10): 9%
- percentage of animals which have not yet shown the appearance of cataracts (galactosemic cataract; day 12): 19%
- significance compared to non-treated animals (chi^2) (galactosemic cataract; day 12): S
- percentage of animals which have not yet shown the appearance of cataracts (galactosemic cataract; day 16): 22%
- significance compared to non-treated animals (chi^2) (galactosemic cataract; day 16): S
- percentage of animals which have not yet shown the appearance of cataracts (galactosemic cataract; day -4): 100%

SMILES: COc1ccc(C2O[C@@H]3[C@@H](O)[C@H](C)O[C@@H](OC[C@H]4O[C@@H](Oc5c(-c6ccc(O)c(O)c6)oc6cc(O)cc(O)c6c5=O)[C@H](O)[C@@H](O)[C@@H]4O)[C@@H]3O2)cc1 (stereo partly drawn) [No. 22, 3-O-(2,3-O,O-p-methoxybenzylidene-6-α-L-rhamnosyl-β-D-glucosyl)quercetin]
- inhibition at 1000 µM (COMT): 80 to 100%
- inhibition at 100 µM (COMT): 80 to 92%
- inhibition at 10 µM (COMT): 45%
- inhibition at 100 µM (Aldose Reductase): 92%
- inhibition at 10 µM (Aldose Reductase): 79%
- inhibition at 1 µM (Aldose Reductase): 0%

SMILES: C[C@@H]1O[C@@H](OC[C@H]2O[C@@H](Oc3c(-c4ccc(O)c(O)c4)oc4cc(O)cc(O)c4c3=O)[C@H](O)[C@@H](O)[C@@H]2O)[C@@H]2OC(C)(c3ccc(Cl)cc3)O[C@@H]2[C@H]1O (stereo partly drawn) [No. 37, 3-O-(2,3-O,O-(α-methyl-p-chlorobenzylidene)-6-α-L-rhamnosyl-β-D-glucosyl) quercetin]
- inhibition at 1000 µM (COMT): 100%
- inhibition at 100 µM (COMT): 74%
- inhibition at 10 µM (COMT): 27%
- inhibition at 100 µM (Aldose Reductase): 100%
- inhibition at 10 µM (Aldose Reductase): 59%
- inhibition at 1 µM (Aldose Reductase): 24%

SMILES: O=c1c(O[C@@H]2O[C@H](CO)[C@@H](O)[C@H](O)[C@H]2O)c(-c2ccc(O)c(O)c2)oc2cc(O)cc(O)c12 [Isoquercitrin, reference compound]
- inhibition in vivo at 75 mg/kg (carragenin edema; 1/2 h): 28%
- inhibition in vivo at 150 mg/kg (carragenin edema; 1/2 h): 30%
- inhibition in vivo at 75 mg/kg (carragenin edema; 1 h, 1 h): 32%
- inhibition in vivo at 150 mg/kg (carragenin edema; 1 h, 1 h): 40%
- inhibition in vivo at 75 mg/kg (carragenin edema; 2 h, 2 h): 18%
- inhibition in vivo at 150 mg/kg (carragenin edema; 2 h, 2 h): 37%
- inhibition in vivo at 75 mg/kg (carragenin edema; 3 h, 3 h): 28%
- inhibition in vivo at 150 mg/kg (carragenin edema; 3 h, 3 h): 18%
- inhibition in vivo at 75 mg/kg (carragenin edema; 4 h, 4 h): 22%
- inhibition in vivo at 150 mg/kg (carragenin edema; 4 h, 4 h): 9%
- inhibition in vivo at 75 mg/kg (carragenin edema; 5 h, 5 h): 23%
- inhibition in vivo at 150 mg/kg (carragenin edema; 5 h, 5 h): 9%
- inhibition in vivo at 75 mg/kg (carragenin edema; 6 h, 6 h): 25%
- inhibition in vivo at 150 mg/kg (carragenin edema; 6 h, 6 h): 6%
- Solubilities in water (Solubilities in water): insoluble
